Source: publication PMC4761905, “A Novel Heterocyclic Compound CE-104 Enhances Spatial Working Memory in the Radial Arm Maze in Rats and Modulates the Dopaminergic System” (Frontiers in Behavioral Neuroscience, 2016)

Key:
[1] = molecular target: T1, norepinephrine transporter (NET) (Homo sapiens, UniProt P23975); test: [3H]MPP+ uptake inhibition in HEK293 cells stably expressing human NET; format: cell-based
T1 construct: gene SLC6A2

[2] = molecular target: T2, dopamine transporter (DAT) (Homo sapiens, UniProt Q01959); test: [3H]dopamine uptake inhibition in HEK293 cells stably expressing human DAT; format: cell-based
T2 construct: gene SLC6A3
T2 sequence (Q01959 whole entry): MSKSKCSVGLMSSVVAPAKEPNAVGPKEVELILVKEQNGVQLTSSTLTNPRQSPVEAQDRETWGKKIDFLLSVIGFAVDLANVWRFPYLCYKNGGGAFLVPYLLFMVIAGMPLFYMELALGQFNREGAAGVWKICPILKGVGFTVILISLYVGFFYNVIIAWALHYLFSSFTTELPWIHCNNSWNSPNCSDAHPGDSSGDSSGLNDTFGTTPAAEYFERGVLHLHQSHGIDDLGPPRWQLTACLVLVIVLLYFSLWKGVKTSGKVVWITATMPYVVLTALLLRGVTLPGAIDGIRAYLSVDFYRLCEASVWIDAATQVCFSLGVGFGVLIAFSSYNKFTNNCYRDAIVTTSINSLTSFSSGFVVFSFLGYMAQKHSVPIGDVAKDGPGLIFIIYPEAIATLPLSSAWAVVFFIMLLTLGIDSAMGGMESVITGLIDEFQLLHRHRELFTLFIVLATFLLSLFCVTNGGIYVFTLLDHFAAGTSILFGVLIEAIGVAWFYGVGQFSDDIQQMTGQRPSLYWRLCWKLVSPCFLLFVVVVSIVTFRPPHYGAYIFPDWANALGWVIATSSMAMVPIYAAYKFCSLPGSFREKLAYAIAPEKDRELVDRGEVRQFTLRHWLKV

T1 sequence (P23975 whole entry): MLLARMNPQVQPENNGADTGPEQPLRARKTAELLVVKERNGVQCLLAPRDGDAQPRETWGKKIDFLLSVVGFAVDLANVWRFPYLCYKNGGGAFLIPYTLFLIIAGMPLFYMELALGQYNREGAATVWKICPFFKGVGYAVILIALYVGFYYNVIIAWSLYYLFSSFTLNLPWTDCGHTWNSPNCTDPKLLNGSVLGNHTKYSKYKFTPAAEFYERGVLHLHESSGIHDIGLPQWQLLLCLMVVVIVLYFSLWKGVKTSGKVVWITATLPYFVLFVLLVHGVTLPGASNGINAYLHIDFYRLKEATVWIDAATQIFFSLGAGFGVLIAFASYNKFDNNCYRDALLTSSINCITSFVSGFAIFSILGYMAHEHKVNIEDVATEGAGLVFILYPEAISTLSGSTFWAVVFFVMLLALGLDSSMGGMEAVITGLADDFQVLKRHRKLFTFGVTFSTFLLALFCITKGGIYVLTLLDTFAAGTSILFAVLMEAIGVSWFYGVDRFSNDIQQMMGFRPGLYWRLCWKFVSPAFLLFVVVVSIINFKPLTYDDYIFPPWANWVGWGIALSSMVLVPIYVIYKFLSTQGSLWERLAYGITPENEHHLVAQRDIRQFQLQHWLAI

Cc1csc(C[S+]([O-])C(c2ccccc2)c2ccccc2)n1 (racemic) [CE-104, 2-(benzhydrylsulfinylmethyl)-4-methylthiazole]
IC50 [1]: 160 µM
IC50 [2]: 27.9 µM
